Assay results taken from patent US11034715B2, “Ectonucleotidase inhibitors and methods of use thereof” (Calithera Biosciences, Inc., priority 2016, dated 2021).

Key:
[1] = target: recombinant CD73 (Homo sapiens (Human), UniProt P21589); assay: Inhibition of the CD73 enzyme in vitro (soluble recombinant CD73, AMP, Malachite Green); assay type: biochemical; conditions: recombinant CD73 0.5 nM, AMP 50 μM, 30 minutes at room temperature
Experimental: The concentration of inorganic phosphate was determined using a phosphate standard curve.

[2] = target: endogenous, cell-bound CD73 on SK-MEL-28 cells (Homo sapiens (Human), UniProt P21589); assay: Inhibition of endogenous, cell-bound CD73 enzyme activity in SK-MEL-28 cells (AMP, Malachite Green); assay type: cell-based; conditions: 100 μM AMP, 30 minutes at room temperature
Sequence of endogenous, cell-bound CD73 on SK-MEL-28 cells (P21589 27-574): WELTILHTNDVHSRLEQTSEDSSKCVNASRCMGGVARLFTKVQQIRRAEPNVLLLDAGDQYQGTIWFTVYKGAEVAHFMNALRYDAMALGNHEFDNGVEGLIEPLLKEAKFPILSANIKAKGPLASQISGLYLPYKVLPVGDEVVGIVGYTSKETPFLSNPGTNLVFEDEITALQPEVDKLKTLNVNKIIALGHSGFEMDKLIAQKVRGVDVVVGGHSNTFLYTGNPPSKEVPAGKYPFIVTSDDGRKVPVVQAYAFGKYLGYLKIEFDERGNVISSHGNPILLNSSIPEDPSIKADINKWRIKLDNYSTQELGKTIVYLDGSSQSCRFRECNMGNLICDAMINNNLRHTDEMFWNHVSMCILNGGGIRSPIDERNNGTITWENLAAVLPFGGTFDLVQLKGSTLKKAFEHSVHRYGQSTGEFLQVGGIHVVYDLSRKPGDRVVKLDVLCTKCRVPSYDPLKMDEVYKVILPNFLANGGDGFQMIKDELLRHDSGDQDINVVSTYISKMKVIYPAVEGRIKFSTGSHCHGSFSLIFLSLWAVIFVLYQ
Experimental: The day before the experiment, 5000 cells were plated per well in a 96-well plate. Cells were washed twice with 200 μL reaction buffer (20 mM HEPES, pH 7.4, 125 mM NaCl, 1 mM KCl, 2 mM MgCl2, 10 mM glucose) to remove residual inorganic phosphate. After washing, assays contained serial dilutions of test compounds and 100 μM of AMP in a total volume of 200 μL reaction buffer, with a final DMSO concentration ≤0.5%. After 30 minutes at room temperature, supernatant was removed from the cells. […] The concentration of inorganic phosphate was determined using a phosphate standard curve to determine IC50.

Sequence of recombinant CD73 (P21589 27-547): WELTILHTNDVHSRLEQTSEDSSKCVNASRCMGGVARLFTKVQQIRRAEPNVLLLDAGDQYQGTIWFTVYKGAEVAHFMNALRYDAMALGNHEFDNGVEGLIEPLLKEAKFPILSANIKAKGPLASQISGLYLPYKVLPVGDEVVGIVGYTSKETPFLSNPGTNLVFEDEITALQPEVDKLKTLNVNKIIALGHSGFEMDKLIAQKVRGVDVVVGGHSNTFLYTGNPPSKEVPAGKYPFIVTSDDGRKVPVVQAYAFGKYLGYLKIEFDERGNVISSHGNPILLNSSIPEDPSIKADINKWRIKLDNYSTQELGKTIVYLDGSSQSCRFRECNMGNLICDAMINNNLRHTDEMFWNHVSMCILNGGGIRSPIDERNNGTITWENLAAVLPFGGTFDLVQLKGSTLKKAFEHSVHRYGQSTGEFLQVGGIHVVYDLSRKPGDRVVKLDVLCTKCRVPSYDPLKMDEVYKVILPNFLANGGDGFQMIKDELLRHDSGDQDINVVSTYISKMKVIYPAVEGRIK

IC50 [1]: 258 nM
IC50 [2]: 827 nM
Compound: Nc1nc(Cl)nc2c1ncn2[C@@H]1O[C@H](COC(Cc2ccc(Cl)c(Cl)c2)(C(=O)O)C(=O)O)[C@@H](O)[C@@H]1F [compound 128]
